22 molecules from patent US9365576B2, “Pyrrolopyrrolidinone compounds” (Novartis AG, priority 2012, dated 2016) can be followed below.

As usually defined, the IC50 is the point on the concentration scale where inhibition reaches its midpoint.

The target of the experiment is human MDM2 protein (amino acids 2-188) (Homo sapiens (Human), UniProt Q00987). Description: TR-FRET assay, p53-MDM2 Assay 2 (modified). It is filed as binding. The note with it: TR-FRET; 0.1 nM MDM2, 0.1 nM Europium labeled streptavidin, Tecan genios Pro reader; read-out: IC50 p53-MDM2 Assay 2. As for the experimental part: The inhibition of p53-MDM2 and p53-MDM4 interactions is measured by time resolved fluorescence energy transfer (TR-FRET). Fluorescence energy transfer (or Foerster resonance energy transfer) describes an energy transfer between donor and acceptor fluorescent molecules. For this assay, human MDM2 protein (amino acids 2-188) and human MDM4 protein (amino acids 2-185), tagged with a C-terminal biotin moiety, are used in combination with a Europium labeled streptavidin (Perkin Elmer, Inc., Waltham, Mass., USA) serving as the donor fluorophore. The p53 derived, Cy5 labeled peptide Cy5-[…] (p53 aa18-26) is the energy acceptor. Upon excitation of the donor molecule at 340 nm, binding interaction between MDM2 or MDM4 and the p53 peptide induces energy transfer and enhanced response at the acceptor emission wavelength at 665 nm. […] The ratiometric FRET assay readout is calculated from the raw data of the two distinct fluorescence signals measured in time resolved mode (fluorescence 665 nm/fluorescence 620 nm×1000).
human MDM2 protein (amino acids 2-188), sequence (Q00987 2-188): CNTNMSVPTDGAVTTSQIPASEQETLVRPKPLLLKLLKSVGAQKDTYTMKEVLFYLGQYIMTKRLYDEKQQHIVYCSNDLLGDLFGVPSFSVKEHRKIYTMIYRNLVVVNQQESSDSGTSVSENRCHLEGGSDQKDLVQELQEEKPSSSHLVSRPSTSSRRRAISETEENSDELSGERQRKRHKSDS
After addition of 1.25 nM MDM2-biotinylated or 2.5 nM MDM4-biotinylated (internal preparations), and 0.625 nM Europium labeled streptavidin (Perkin Elmer), the solution is pre-incubated for 15 minutes at room temperature, then 10 nM Cy5-p53 peptide (internal preparation) is added before an incubation at room temperature for 15 minutes prior to reading the plate. For measurement of samples, a Victor II microplate reader (Perkin Elmer) is used with the following settings: Excitation 340 nm, Emission Donor 620 nm and Emission Acceptor 665 nm. IC50 values are calculated by curve fitting using XLfit. If not specified, reagents are purchased from Sigma-Aldrich Chemie GmBH, Buchs, Switzerland.
(In general: Time-resolved FRET reads energy transfer from a long-lived donor to a nearby acceptor.)
With `COc1nc(N(C)C)ncc1-c1cc2c(n1C(C)C)[C@@H](c1ccc(Cl)cc1)N(c1c[nH]c(=O)c(Cl)c1)C2=O` [Example 189, (R)-5-(5-Chloro-6-oxo-1,6-dihydro-pyridin-3-yl)-6-(4-chloro-phenyl)-2-(2-dimethylamino-4-methoxy-pyrimidin-5-yl)-1-isopropyl-5,6-dihydro-1H-pyrrolo[3,4-b]pyrrol-4-one], the half-maximal inhibitory concentration (IC50) was determined as 10.6 nM.

As for `COc1ncc(-c2cc3c(n2C(C)C)C(C)(c2ccc(Cl)cc2)N(c2cc(Cl)c(=O)n(C)c2)C3=O)c(OC)n1` (stereo not shown) [Example 117, 5-(5-Chloro-1-methyl-6-oxo-1,6-dihydro-pyridin-3-yl)-6-(4-chloro-phenyl)-2-(2,4-dimethoxy-pyrimidin-5-yl)-1-isopropyl-6-methyl-5,6-dihydro-1H-pyrrolo[3,4-b]pyrrol-4-one], the IC50 is 0.208 nM.

Consider `COc1ccc(S(C)(=O)=O)cc1-c1cc2c(n1C(C)C)C(c1ccc(Cl)cc1)N(c1cc(Cl)ccc1C)C2=O` (stereo not shown) [Example 114, 5-(5-Chloro-2-methyl-phenyl)-6-(4-chloro-phenyl)-1-isopropyl-2-(5-methanesulfonyl-2-methoxy-phenyl)-5,6-dihydro-1H-pyrrolo[3,4-b]pyrrol-4-one], for which the IC50 is 0.184 nM.

Turning to `COc1nc(N(C)C)ncc1-c1cc2c(n1C(C)C)C(c1ccc(C#N)cc1)N(C1CCOCC1)C2=O` (stereo not shown) [Example 158, 4-[2-(2-Dimethylamino-4-methoxy-pyrimidin-5-yl)-1-isopropyl-4-oxo-5-(tetrahydro-pyran-4-yl)-1,4,5,6-tetrahydro-pyrrolo[3,4-b]pyrrol-6-yl]-benzonitrile], the IC50 was 1.34 nM.

As to `COc1nc(N(C)C)ncc1-c1cc2c(n1C(C)C)[C@H](c1ccc(C#N)cc1)N(c1ccc(F)c(Cl)c1)C2=O` [Example 169, 4-[(S)-5-(3-Chloro-4-fluoro-phenyl)-2-(2-dimethylamino-4-methoxy-pyrimidin-5-yl)-1-isopropyl-4-oxo-1,4,5,6-tetrahydro-pyrrolo[3,4-b]pyrrol-6-yl]-benzonitrile], the IC50 stood at 0.357 nM.

Turning to `CNc1ncc(-c2cc3c(n2C(C)C)[C@H](c2ccc(C#N)cc2)N(c2cc(Cl)cn(C)c2=O)C3=O)c(OC)n1` [Example 165, 4-[(S)-5-(5-Chloro-1-methyl-2-oxo-1,2-dihydro-pyridin-3-yl)-1-isopropyl-2-(4-methoxy-2-methylamino-pyrimidin-5-yl)-4-oxo-1,4,5,6-tetrahydro-pyrrolo[3,4-b]pyrrol-6-yl]-benzonitrile], the IC50 amounted to 0.578 nM.

For the molecule `COC[C@@H](C)n1c(-c2cnc(N)nc2OC)cc2c1[C@@H](c1ccc(Cl)cc1)N(c1ccc(F)c(Cl)c1)C2=O` [Example 230, (R)-2-(2-Amino-4-methoxy-pyrimidin-5-yl)-5-(3-chloro-4-fluoro-phenyl)-6-(4-chloro-phenyl)-1-((R)-2-methoxy-1-methyl-ethyl)-5,6-dihydro-1H-pyrrolo[3,4-b]pyrrol-4-one], the 50% inhibitory concentration (IC50) was found to be 281 nM.

With `COc1ccc(S(C)(=O)=O)cc1-c1cc2c(n1C(C)C)C(c1ccc(Cl)cc1)N(c1cn(C)nc1C)C2=O` (stereo not shown) [Example 183, 6-(4-Chloro-phenyl)-5-(1,3-dimethyl-1H-pyrazol-4-yl)-1-isopropyl-2-(5-methanesulfonyl-2-methoxy-phenyl)-5,6-dihydro-1H-pyrrolo[3,4-b]pyrrol-4-one], the IC50 was found to be 2.57 nM.

With `COc1ccc(C(=O)NCCS(C)(=O)=O)cc1-c1cc2c(n1C(C)C)C(c1ccc(Cl)cc1)N(c1cc(Cl)ccc1C)C2=O` (stereo not shown) [Example 36, 3-[5-(5-Chloro-2-methyl-phenyl)-6-(4-chloro-phenyl)-1-isopropyl-4-oxo-1,4,5,6-tetrahydro-pyrrolo[3,4-b]pyrrol-2-yl]-N-(2-methanesulfonyl-ethyl)-4-methoxy-benzamide], the IC50 was found to be 0.115 nM.

With `COc1nc(N)ncc1-c1cc2c(n1C(C)C)C(c1ccc(C#N)cc1)N(c1cccc(Cl)c1F)C2=O` (stereo not shown) [Example 41, 4-[2-(2-Amino-4-methoxy-pyrimidin-5-yl)-5-(3-chloro-2-fluoro-phenyl)-1-isopropyl-4-oxo-1,4,5,6-tetrahydro-pyrrolo[3,4-b]pyrrol-6-yl]-benzonitrile], the IC50 was found to be 0.349 nM.

For the molecule `[2H]C([2H])([2H])Oc1ncc(-c2cc3c(n2C(C)C)[C@@H](c2ccc(Cl)cc2)N(c2cc(Cl)c(=O)n(C)c2)C3=O)c(OC([2H])([2H])[2H])n1` [Example 219, (R)-5-(5-Chloro-1-methyl-6-oxo-1,6-dihydro-pyridin-3-yl)-6-(4-chloro-phenyl)-2-(2,4-d6-dimethoxy-pyrimidin-5-yl)-1-isopropyl-5,6-dihydro-1H-pyrrolo[3,4-b]pyrrol-4-one], the IC50 stood at 28.3 nM.

Consider `COc1ncc(-c2cc3c(n2C(C)C)C(c2ccc(Cl)cc2)N(c2cc(Cl)ccc2C#N)C3=O)c(OC)n1` (stereo not shown) [Example 98, 4-Chloro-2-[6-(4-chloro-phenyl)-2-(2,4-dimethoxy-pyrimidin-5-yl)-1-isopropyl-4-oxo-4,6-dihydro-1H-pyrrolo[3,4-b]pyrrol-5-yl]-benzonitrile], for which the IC50 turned out to be 0.316 nM.

For `COc1nc(N(C)C)ncc1-c1cc2c(n1C(C)C)[C@@H](c1ccc(C#N)cc1)N(c1cc(Cl)c[nH]c1=O)C2=O` [Example 168, 4-[(R)-5-(5-Chloro-2-oxo-1,2-dihydro-pyridin-3-yl)-2-(2-dimethylamino-4-methoxy-pyrimidin-5-yl)-1-isopropyl-4-oxo-1,4,5,6-tetrahydro-pyrrolo[3,4-b]pyrrol-6-yl]-benzonitrile], the IC50 was 107 nM.

For `COc1ccc(-c2nnn[nH]2)cc1-c1cc2c(n1C(C)C)C(c1ccc(Cl)cc1)N(c1cc(Cl)ccc1C)C2=O` (stereo not shown) [Example 34, 5-(5-Chloro-2-methyl-phenyl)-6-(4-chloro-phenyl)-1-isopropyl-2-[2-methoxy-5-(1H-tetrazol-5-yl)-phenyl]-5,6-dihydro-1H-pyrrolo[3,4-b]pyrrol-4-one], the half-inhibitory concentration (IC50) was found to be 0.188 nM.

Turning to `COc1nc(N)ncc1-c1cc2c(n1C(C)C)C(c1ccc(C#N)cc1)N(c1ccc(F)c(Cl)c1)C2=O` (stereo not shown) [Example 39, 4-[2-(2-Amino-4-methoxy-pyrimidin-5-yl)-5-(3-chloro-4-fluoro-phenyl)-1-isopropyl-4-oxo-1,4,5,6-tetrahydro-pyrrolo[3,4-b]pyrrol-6-yl]-benzonitrile], the half-maximal inhibitory concentration (IC50) is 0.556 nM.

For the molecule `CNc1ncc(-c2cc3c(n2C(C)C)C(c2ccc(Cl)cc2)N(c2c[nH]c(=O)c(Cl)c2)C3=O)c(OC)n1` (stereo not shown) [Example 152, 5-(5-Chloro-6-oxo-1,6-dihydro-pyridin-3-yl)-6-(4-chloro-phenyl)-1-isopropyl-2-(4-methoxy-2-methylamino-pyrimidin-5-yl)-5,6-dihydro-1H-pyrrolo[3,4-b]pyrrol-4-one], the IC50 came out at 0.166 nM.

As for `CNc1ncc(-c2cc3c(n2C(C)C)C(c2ccc(Cl)cc2)N(c2cc(Cl)c[nH]c2=O)C3=O)c(OC)n1` (stereo not shown) [Example 124, 5-(5-Chloro-2-oxo-1,2-dihydro-pyridin-3-yl)-6-(4-chloro-phenyl)-1-isopropyl-2-(4-methoxy-2-methylamino-pyrimidin-5-yl)-5,6-dihydro-1H-pyrrolo[3,4-b]pyrrol-4-one], the IC50 came to 0.185 nM.

For `COc1ccc(CC(=O)N(C)C)cc1-c1cc2c(n1C(C)C)C(c1ccc(Cl)cc1)N(c1cc(Cl)ccc1C)C2=O` (stereo not shown) [Example 82, 2-{3-[5-(5-Chloro-2-methyl-phenyl)-6-(4-chloro-phenyl)-1-isopropyl-4-oxo-1,4,5,6-tetrahydro-pyrrolo[3,4-b]pyrrol-2-yl]-4-methoxy-phenyl}-N,N-dimethyl-acetamide], the IC50 stood at 0.152 nM.

For `COc1ncc(-c2cc3c(n2C(C)C)C(c2ccc(Cl)cn2)N(c2cc(Cl)ccc2C)C3=O)c(OC)n1` (stereo not shown) [Example 235, 5-(5-Chloro-2-methylphenyl)-6-(5-chloropyridin-2-yl)-2-(2,4-dimethoxypyrimidin-5-yl)-1-isopropyl-1-5,6-dihydropyrrolo[3,4-b]pyrrol-4(1H)-one], the IC50 turned out to be 7.16 nM.

Take `COc1ncc(-c2cc3c(n2C(C)C)C(c2ccc(Cl)cc2)N(c2cc(C)cn(C)c2=O)C3=O)c(OC)n1` (stereo not shown) [Example 239, 6-(4-Chlorophenyl-1)-2-(2,4-dimethoxypyrimidin-5-yl)-5-(1,5-dimethyl-2-oxo-1,2-dihydropyridin-3-yl)-1-isopropyl-5,6-dihydropyrrolo[3,4-b]pyrrol-4(1H)-one]: the IC50 worked out at 1.16 nM.

For the molecule `COc1ncc(-c2cc3c(n2C(C)C)[C@@H](c2ccc(Cl)cc2C)N(c2cc(Cl)c(=O)n(C)c2)C3=O)c(OC)n1` [Example 161, (R)-5-(5-Chloro-1-methyl-6-oxo-1,6-dihydro-pyridin-3-yl)-6-(4-chloro-2-methyl-phenyl)-2-(2,4-dimethoxy-pyrimidin-5-yl)-1-isopropyl-5,6-dihydro-1H-pyrrolo[3,4-b]pyrrol-4-one], the IC50 came out at 308 nM.

For the molecule `COc1ncc(-c2cc3c(n2C(C)C)C(c2ccc(Cl)cn2)N(c2cc(Cl)cn(C)c2=O)C3=O)c(OC)n1` (stereo not shown) [Example 213, 5-(5-Chloro-1-methyl-2-oxo-1,2-dihydro-pyridin-3-yl)-6-(5-chloro-pyridin-2-yl)-2-(2,4-dimethoxy-pyrimidin-5-yl)-1-isopropyl-5,6-dihydro-1H-pyrrolo[3,4-b]pyrrol-4-one], the 50% inhibitory concentration (IC50) was found to be 14.2 nM.
